Experiments:
S. aureus = experiment: Minimum Inhibition Concentration (MIC) assay, modified micro-broth dilution, S. aureus; assay type: cell-based, Staphylococcus aureus; conditions: for activity against Staphylococcus aureus: at concentrations up to 1.0 μM; for MIC against S. aureus: mean±SEM, n=3, 18 hours at 37° C.
E. coli = experiment: Minimum Inhibition Concentration (MIC) assay, modified micro-broth dilution, E. coli; assay type: cell-based, Escherichia coli; conditions: for activity against Escherichia coli: at concentrations up to 1.0 μM; for MIC against E. coli: mean±SEM, n=3, 18 hours at 37° C.

**Q.** 2,6-diaminopyridinyl heparin [DAPHP] was tested. Which “activity against Staphylococcus aureus” value (S. aureus) did it give?
**A.** Its value is “no activity”.

**Q.** What about the “MIC against S. aureus” value (S. aureus) of the same substance?
**A.** The value was >1.0 μM of sugar.

**Q.** And the “activity against Escherichia coli” value (E. coli)?
**A.** Its value is “no activity”.

**Q.** What about the “MIC against E. coli” value (E. coli) of the same substance?
**A.** Its value is >1.0 μM of sugar.

**Q.** What does the source list for hyaluronan [HA]?
**A.** activity against Staphylococcus aureus (S. aureus): no activity; MIC against S. aureus (S. aureus): >1.0 μM of sugar; activity against Escherichia coli (E. coli): no activity; MIC against E. coli (E. coli): >1.0 μM of sugar
